Assay: in vitro
Conditions: human, hela cells, % viability

| SMILES | viability at 28.5 h, 10 µM | viability at 28.5 h, 10 µM (bulk resorufin, single well) |
| --- | --- | --- |
| COc1ccc([C@@]23CC[C@@H](CNC(=O)c4ccc(C(F)(F)F)cc4)C[C@@H]2N(C)CC3)cc1OC [CBK042195] | 107% | – |
| O=[N+]([O-])c1ccc(N2CCN(CCO)CC2)cc1NCc1ccccc1 [CBK042200] | 99.9% | – |
| CN1CCN(C(=O)CNS(=O)(=O)c2ccc3ccccc3c2)CC1 [CBK042205] | 99.3% | – |
| COc1ccc(Br)cc1S(=O)(=O)NCC(=O)Nc1ccc(F)cc1 [CBK042223] | 98.1% | – |
| O=C(CNS(=O)(=O)Cc1ccccc1[N+](=O)[O-])Nc1ccc(F)cc1 [CBK042228] | 90% | – |
| O=C(CS(=O)(=O)c1cc2c(N3CCNCC3)nccc2s1)c1ccc(N2CCCC2)cc1 [CBK042232C] | 81.2% | – |
| Cc1ccc(S(=O)(=O)Nc2sccc2C(=O)O)cc1 [CBK042244] | 98.6% | – |
| O=C(O)c1ccsc1NS(=O)(=O)c1ccc(Oc2ccccc2)cc1 [CBK042259] | 89.8% | – |
| CN1CCN(C(=O)c2ccsc2NS(=O)(=O)Cc2ccccc2)CC1 [CBK042266] | 97.5% | – |
| CN1CCN(C(=O)c2ccsc2NS(=O)(=O)/C=C/c2ccccc2)CC1 [CBK042267] | 104% | – |
| CN1CCN(C(=O)c2ccsc2NS(=O)(=O)c2ccc(-c3ccccc3)cc2)CC1 [CBK042274] | 103% | – |
| O=C(c1ccsc1NS(=O)(=O)c1ccc2ccccc2c1)N1CCOCC1 [CBK042278] | 93.7% | – |
| O=C(c1ccsc1NS(=O)(=O)/C=C/c1ccccc1)N1CCOCC1 [CBK042285] | 90.8% | – |
| O=C(c1ccsc1NS(=O)(=O)Cc1ccccc1[N+](=O)[O-])N1CCOCC1 [CBK042294] | 89.6% | – |
| O=C(Nc1ccc(F)cc1)c1ccsc1NS(=O)(=O)Cc1ccccc1 [CBK042303] | 82.8% | – |
| CCN(CC)C(=O)c1ccsc1NS(=O)(=O)c1cc(Br)ccc1OC [CBK042327] | 103% | – |
| CC(C)c1ccc(NS(=O)(=O)c2csc3ccnc(N4CCNCC4)c23)cc1 [CBK042343C] | 95.8% | – |
| O=C(O)c1ccccc1NS(=O)(=O)c1cccc2cccnc12 [CBK042358] | 56.7% | – |
| CC(=O)Nc1ccc(S(=O)(=O)Nc2ccccc2C(=O)O)cc1 [CBK042361] | 107% | – |
| O=C(O)c1ccccc1NS(=O)(=O)/C=C/c1ccccc1 [CBK042363] | 102% | – |
| COc1ccc(S(=O)(=O)Nc2ccccc2C(=O)O)cc1OC [CBK042368] | 85.7% | – |
| O=C(NCCC1=CCCCC1)Nc1ccc(F)c(F)c1F [CBK043265] | 89.3% | – |

| SMILES | viability at 28.5 h, 10 µM | viability at 28.5 h, 10 µM (bulk resorufin, single well) |
| --- | --- | --- |
| Cc1ccc(NS(=O)(=O)c2ccc(OC(F)(F)F)cc2)c(CO)c1 [CBK043267] | 86.8% | – |
| C[C@@H]1[C@H](c2ccccc2)OC(=O)N1C1CCN(S(=O)(=O)c2cccs2)CC1 [CBK043302] | 93.9% | – |
| O=C1OCCN1C1CCN(S(=O)(=O)c2cccs2)CC1 [CBK043313] | 99.3% | – |
| O=C(c1ccccc1NS(=O)(=O)c1cccc2cccnc12)N1CCOCC1 [CBK043338] | 87.1% | – |
| O=S(=O)(NCc1cccc(F)c1)c1ccc(OC(F)(F)F)cc1 [CBK043379] | 88.5% | – |
| CCCCOC(=O)c1ccc(NC(=O)NCCc2cccs2)cc1 [CBK043381] | 86% | – |
| CC(C)c1ccc(S(=O)(=O)NCCC2CCN(Cc3ccccc3)CC2)cc1 [CBK043456] | 94.5% | – |
| Cc1cc(C)cc(CNC(=O)NCCc2cccs2)c1 [CBK043459] | 103% | – |
| CCC(C)(C)c1ccc(S(=O)(=O)Nc2ccc3ncsc3c2)cc1 [CBK043490] | 113% | – |
| CCC(O)CNS(=O)(=O)c1ccc(C(C)C)cc1 (stereo not drawn) [CBK043543] | 91.6% | – |
| CC(C)c1ccc(S(=O)(=O)NCC(C)(C)CO)cc1 [CBK043547] | 110% | – |
| O=S(=O)(Nc1cccc(C(F)(F)F)c1)c1ccc(OC(F)(F)F)cc1 [CBK043554] | 86.3% | – |
| N#CCCNS(=O)(=O)c1ccc(OC(F)(F)F)cc1 [CBK043560] | 97.9% | – |
| CC(C)c1ccc(S(=O)(=O)N(CCC#N)Cc2ccccc2)cc1 [CBK043565] | 90.7% | – |
| CSc1ccc(NS(=O)(=O)c2ccc(NC(C)=O)c(Cl)c2)cc1 [CBK043566] | 108% | – |
| CCCCOC(=O)c1ccccc1NC(=O)NCCc1cccs1 [CBK043573] | 93.5% | – |
| CCOc1ccccc1CCNS(=O)(=O)c1ccc(Cl)c(Cl)c1 [CBK043610] | 95.5% | – |
| CC(C)c1ccc(S(=O)(=O)NCCC(C)(C)C)cc1 [CBK043640] | 95.4% | – |
| O=C(Nc1ccccc1Br)N1CCC2(CC1)OCCO2 [CBK043644] | – | 90.7% |
| Cc1cc(S(=O)(=O)Nc2cccc(Br)c2)c(C)cc1Cl [CBK043652] | 80.8% | – |
| Cc1cc(S(=O)(=O)NCCC#N)c(C)cc1Cl [CBK043680] | 113% | – |
| O=S(=O)(Nc1cnc2ccccc2c1)c1cccs1 [CBK043694] | 83% | – |

| SMILES | viability at 28.5 h, 10 µM | viability at 28.5 h, 10 µM (bulk resorufin, single well) |
| --- | --- | --- |
| O=C1OCc2ccc(NS(=O)(=O)c3ccc(OC(F)(F)F)cc3)cc21 [CBK043715] | 82.8% | – |
| O=C(NCCc1cccs1)Nc1cc(C(F)(F)F)cc(C(F)(F)F)c1 [CBK043718] | 91.1% | – |
| O=C(NCCC1=CCCCC1)Nc1ccc(SC(F)(F)F)cc1 [CBK043725] | 85.7% | – |
| Cc1ccc(S(=O)(=O)N2CCC3(CC2)OCCO3)cc1Cl [CBK043731] | 97.1% | – |
| CCOC(=O)CN1CCN(S(=O)(=O)c2ccc3ccccc3c2)CC1 [CBK043738] | 93.4% | – |
| CCCCOc1ccc(NC(=O)NCCC2=CCCCC2)cc1 [CBK043751] | 92.1% | – |
| O=C(NCCc1cccs1)Nc1cc(Cl)nc(Cl)c1 [CBK043762] | 87.2% | – |
| O=S(=O)(Nc1ccccn1)c1cccs1 [CBK043773] | 94.7% | – |
| CCCCNC(=O)N1CCN(c2ccccc2Cl)CC1 [CBK043777] | 106% | – |
| CCCCCNC(=O)NCCC1=CCCCC1 [CBK043796] | 96.9% | – |
| Cc1cc(S(=O)(=O)NCc2cc(F)c(F)c(F)c2)c(C)cc1Cl [CBK043813] | 85% | – |
| O=S(=O)(Nc1cccc(O)c1)c1ccc(OC(F)(F)F)cc1 [CBK043822] | 108% | – |
| N#Cc1cccc(Cn2cc(NC(=O)NCCc3cccs3)cn2)c1 [CBK043824] | 94.9% | – |
| COC(=O)c1ccc(Cn2cc(NC(=O)NCCc3cccs3)cn2)o1 [CBK043825] | 82.4% | – |
| CC(C)c1ccc(S(=O)(=O)Nc2cccnc2)cc1 [CBK043884] | 97.9% | – |
| COc1ccc(NS(=O)(=O)c2cccs2)c(OC)c1 [CBK043915] | 93% | – |
| O=C(NCCc1cccs1)Nc1cc(F)ccc1F [CBK043935] | 113% | – |
| O=C(NCCc1cccs1)Nc1ccc(F)c(F)c1 [CBK043951] | 87% | – |
| CCC(C)(C)c1ccc(S(=O)(=O)N(CCC#N)Cc2cccnc2)cc1 [CBK043960] | 89.6% | – |
| Cc1cc(S(=O)(=O)Nc2cc(C3CC3)nn2C)c(C)cc1Cl [CBK043994] | 111% | – |
| CCOC(=O)C(NS(=O)(=O)c1ccc(NC(C)=O)c(Cl)c1)C(=O)OCC [CBK043996] | 96.2% | – |
| O=S(=O)(c1cnc(Cl)c(Br)c1)N1CCC2(CC1)OCCO2 [CBK044070] | 97.5% | – |

— publication PMC12040169 (PLOS Biology, 2025)
